This is an account of results in patent US20220289719A1, “HETEROCYCLIC COMPOUNDS AS MNK INHIBITORS” (NANJING INNOCARE PHARMA TECH CO., LTD., priority 2017, published 2022).

A word on the IC50: it is the midpoint of a concentration-inhibition curve.

Structures can show the parent of a compound that is named as a salt.

T1 sequence (Q9BUB5 whole entry): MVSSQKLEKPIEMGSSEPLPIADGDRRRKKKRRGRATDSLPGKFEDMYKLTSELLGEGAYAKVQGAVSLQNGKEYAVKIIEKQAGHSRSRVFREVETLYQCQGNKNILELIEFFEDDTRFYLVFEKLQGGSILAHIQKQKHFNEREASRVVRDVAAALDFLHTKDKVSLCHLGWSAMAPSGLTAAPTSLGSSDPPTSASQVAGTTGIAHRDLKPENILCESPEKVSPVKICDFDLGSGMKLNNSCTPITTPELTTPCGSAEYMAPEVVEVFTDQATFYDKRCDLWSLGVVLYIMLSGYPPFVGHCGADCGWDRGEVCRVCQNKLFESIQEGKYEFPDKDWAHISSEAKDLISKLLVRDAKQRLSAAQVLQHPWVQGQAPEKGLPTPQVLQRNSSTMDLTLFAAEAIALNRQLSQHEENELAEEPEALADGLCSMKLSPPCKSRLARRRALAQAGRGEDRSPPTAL

The assay addresses T1, Human recombinant full-length MNK1 protein (Homo sapiens, UniProt Q9BUB5).
T1 construct: Human recombinant full-length MNK1 protein; purchased Thermo PR9138A
The assay is described as follows: MNK1 inhibitory activity assay (ADP-Glo in vitro kinase assay). It is filed as biochemical. Conditions: 10 concentration points. Here is the method:
MNK1 Inhibitory Activity Assay: Evaluation of the effects of compounds of the invention on […] (MNK1) activity using in vitro kinase assays. The experimental methods are summarized as follows: The in vitro activity of MNK1 was determined by measuring the level of ADP produced in the kinase reaction using the ADP-Glo Kinase Assay Kit. The reaction buffer consisted of the following components: 50 mM HEPES, pH 7.5, 10 mM MgCl2, 1 mM EGTA, 0.01% Brij35. Human recombinant full-length MNK1 protein (Thermo, Cat. No. PR9138A) was diluted with a reaction buffer to a 3.13 ng/uL kinase solution. The substrate reaction solution consisted of a substrate diluted to 0.75 mg/ml in reaction buffer ([…], available from […] Domestic Company), 2250 uM ATP, the ADP-Glo reagent and kinase assay solution from Promega kit (Promega, V9102). […] If the compound IC50 value is very low, the initial concentration of the compound can be lowered. To a 384-well assay plate (Thermo, Cat. No. 264706) were added 1 uL of compound solution and 2 uL of MNK1 kinase solution. The mixture was mixed well and incubated for 30 minutes at room temperature; then 2 uL of substrate reaction solution was added, the reaction mixture was incubated for 120 minutes at room temperature. The reaction was terminated after an equal volume of 5uLADP-Glo solution was added, and the remaining ATP was completely consumed. After mixing for 60 minutes at room temperature, 10 ul of the kinase assay solution was added, and the mixture was uniformly mixed, and allowed to stand at room temperature for 40 minutes in the dark. The detection solution converts ADP into new ATP through coupled luciferase/luciferin, and ATP is converted into optical signal by Ultr-GloTM luciferase, which can be detected by Envision. The intensity of the light signal is proportional correlated with the amount of ADP produced in the kinase reaction, therefore, the activity of MNK1 kinase can be determined. In this experiment, the group without protein was used as a negative control (100% inhibition). The group with protein but without compounds was used as a positive control (0% inhibition).
A general note: In ADP-Glo the light output rises with the ADP produced.
With `COc1cc2[nH]ncc2cc1Nc1ncnc(N)c1-c1ccccn1` [Compound 44, 5-((6-amino-5-(pyridin-2-yl)pyrimidin-4-yl)amino-6-methoxy-1H-indazole formate], the IC50 came to 1000 nM.
The value for `COc1cc2[nH]ncc2cc1Nc1cc(Nc2ncc(Cl)cn2)ncn1` [Compound 26, 5-(6-((5-chloropyrimidin-2-yl)amino)pyrimidin-4-ylamino)-6-methoxy-1H-indazole] was 36.6 nM; that for `COc1c(Nc2ncnc3[nH]ncc23)ccc2c1CNC2=O` [Compound 81, 5-((1H-Pyrazolo[3,4-d]pyrimidin-4-yl)amino)-4-methoxyisoindolin-1-one] was 103 nM.
On to `COc1c(Nc2ncncc2OCCN(C)C)ccc2c1CNC2=O` [Compound 77, 5-((5-(2-(Dimethylamino)ethoxy)pyrimidin-4-yl)amino)-4-methoxyisodihydroindole-1-one dicarboxylate], for which the IC50 is 900 nM.
Regarding `COc1c(Nc2ncnc3[nH]ccc23)ccc2c1CNC2=O` [Compound 79, 5-((7H-Pyrrolo[2,3-d]pyrimidin-4-yl)amino)-4-methoxyisoindolin-1-one], the IC50 was 20.9 nM.
In the case of `COc1cc2[nH]ncc2cc1Nc1cc(NC(=O)c2ccccn2)ncn1` [Compound 11, 5-(6-(2-Pyridine) formylaminopyrimidin-4-ylamino)-6-methoxy-1H-indazole], the IC50 was 532 nM.
The value for `COc1cc2[nH]ncc2cc1Nc1cc(Nc2ccncn2)ncn1` [Compound 22, 5-(6-(pyrimidin-4-ylamino)pyrimidin-4-ylamino)-6-methoxy-1H-indazole formate] was 23.3 nM.
The figure for `CNc1cc(Nc2cc3cn[nH]c3cc2OC)ncn1` [Compound 30, 5-(6-Methylaminopyrimidin-4-ylamino)-6-methoxy-1H-indazole] is 141 nM; for `COc1cc2[nH]ncc2cc1Nc1ncnc(N)c1C(=O)N1CCOCC1` [Compound 41] it is 1050 nM.
As to `COc1cc2[nH]ncc2cc1Nc1ncnc(N)c1C1=CCC(C(=O)O)CC1` (stereo not drawn) [Compound 32, 5-((6-Amino-5-cyclohex-3-ene-1-carboxypyrimidin-4-yl)amino)-6-methoxy-1H-indazole hydrochloride], the IC50 was 166 nM.
As to `COc1cc2[nH]ncc2cc1Nc1ncncc1OCCN1CCOCC1` [Compound 55, 5-(5-(2-(4-Morpholine)ethoxy)pyrimidin-4-yl) amino)-6-methoxy-1H-indazole formate], the concentration for half-maximal inhibition (IC50) worked out at 187 nM.
The value for `COc1cc2ncn(C(=O)OC(C)(C)C)c2cc1Nc1cc(NC(=O)C2CC2)ncn1` [Compound 61, 3-tert-butoxycarbonyl-5-(6-cyclopropionamidopyrimidin-4-ylamino)-6-methoxybenzimidazole] was 594 nM; that for `CC(C)Oc1cc2[nH]ncc2cc1Nc1cc(NC(=O)C2CC2)ncn1` [Compound 7, 5-(6-cyclopropionamidopyrimidin-4-ylamino)-6-isopropoxy-1H-indazole formate] was 44.9 nM; that for `COc1cc2[nH]ncc2cc1Nc1ncnc(N)c1C` [Compound 47, 5-((6-Amino-5-methylpyrimidin-4-yl)amino)-6-methoxy-1H-indazole] was 79.1 nM.
The value for `COc1cc2[nH]ncc2cc1Nc1cc(NC(=O)c2ccccc2)ncn1` [Compound 10, 5-(6-benzoylaminopyrimidin-4-ylamino)-6-methoxy-1H-indazole] was 23.8 nM.
The figure for `COc1cc2[nH]ncc2cc1Nc1ncnc2[nH]cnc12` [Compound 58, N-(6-Methoxy-1H-indazol-5-yl)-purin-6-amine] is 6.1 nM; for `COc1cc2[nH]ncc2cc1Nc1cc(Nc2ncccn2)ncn1` [Compound 27, 5-(6-(Pyrimidin-2-ylamino)pyrimidin-4-ylamino)-6-methoxy-1H-indazole] it is 43.8 nM; for `COc1cc2[nH]ncc2cc1Nc1cc(NC(C)=O)ncn1` [Compound 2, 5-(6-Acetylaminopyrimidin-4-ylamino)-6-methoxy-1H-indazole] it is 59.5 nM.
Consider `COc1cncnc1Nc1ccc2c(c1OC)CNC2=O` [Compound 74, 5-((5-Methoxypyrimidin-4-yl)amino)-4-methoxyisodihydroindole-1-one], for which the IC50 was found to be 38.4 nM.
For `COc1c(Nc2ncncc2OCCN2CCOCC2)ccc2c1CNC2=O` [Compound 76, 5-((5-(2-(4-morpholin)ethoxy)pyrimidin-4-yl)amino)-4-methoxyisodihydroindol-1-one formate], the half-maximal inhibitory concentration (IC50) was found to be 572 nM.
The value for `COc1cc2[nH]ncc2cc1Nc1ncnc(N)c1OC` [Compound 46, 5-((6-Amino-5-methoxypyrimidin-4-yl)amino)-6-methoxy-1H-indazole] was 49.4 nM; that for `CCOC(=O)n1ncc2cc(Nc3cc(NC(=O)C4CC4)ncn3)c(OC)cc21` [Compound 18, 1-Ethoxyacyl-5-(6-cyclopropionamidopyrimidin-4-ylamino)-6-methoxyindazole] was 10.5 nM; that for `CCOc1cncnc1Nc1cc2cn[nH]c2cc1OC` [Compound 56, 5-(5-Ethoxypyrimidin-4-yl) amino)-6-methoxy-1H-indazole formate] was 19.8 nM.
The value for `COc1cc2[nH]ncc2cc1Nc1ncncc1OC` [Compound 52] was 14.4 nM; that for `COc1cc2[nH]ncc2cc1Nc1cc(Nc2cc(Cl)ccn2)ncn1` [Compound 21, 5-(6-((4-Chloropyridin-2-yl)amino)pyrimidin-4-ylamino)-6-methoxy-1H-indazole] was 78.2 nM.
The value for `COc1c(Nc2cc(NC(=O)C3CC3)ncn2)ccc2c1C(C)(C)N(C)C2=O` [Compound 73, 5-((6-(Cyclopropionamido)pyrimidin-4-yl)amino)-4-methoxy-2,3,3-trimethylisoindole-1-one] was 188 nM.
In the case of `COc1c(Nc2ncncc2OCCO)ccc2c1CNC2=O` [Compound 78, 5-((5-(2-Hydroxyethoxy)pyrimidin-4-yl)amino)-4-methoxyisoindolin-1-one], the IC50 is 19.7 nM.
The value for `COc1cc2c(cnn2C(=O)OC(C)(C)C)cc1Nc1cc(NC(=O)C2CC2)ncn1` [Compound 3, 1-tert-Butoxycarbonyl-5-(6-cyclopropionamidopyrimidin-4-ylamino)-6-methoxyindazole] was 11.3 nM.
The value for `COc1cc2[nH]ncc2cc1Nc1cc(NC(=O)C(C)(C)C)ncn1` [Compound 12, 5-(6-Pivaloylaminopyrimidin-4-ylamino)-6-methoxy-1H-indazole] was 729 nM.
The figure for `COc1cc2[nH]ncc2cc1Nc1cc(Nc2ncccc2Cl)ncn1` [Compound 28, 5-(6-((3-Chloropyridin-2-yl)amino)pyrimidin-4-ylamino)-6-methoxy-1H-indazole] is 539 nM; for `COCCOc1cncnc1Nc1ccc2c(c1OC)CNC2=O` [Compound 75, 5-((5-(2-Methoxyethoxy)pyrimidin-4-yl)amino)-4-methoxyisodihydroindole-1-one] it is 34.4 nM; for `COc1cc2c(cnn2C(=O)OC(C)(C)C)cc1Nc1cc(NC(C)=O)ncn1` [Compound 1, 1-tert-Butoxycarbonyl-5-(6-acetylaminopyrimidin-4-ylamino)-6-methoxyindazole] it is 15.5 nM.
With `COc1cc2nn(C(=O)C3CC3)cc2cc1Nc1cc(NC(=O)C2CC2)ncn1` [Compound 15, 2-Cyclopropanoyl-5-(6-cyclopropionamidopyrimidin-4-ylamino)-6-methoxyindazole], the concentration for half-maximal inhibition (IC50) amounted to 21 nM.
